Measurements from ChEMBL document CHEMBL1201862, “PubChem BioAssay data set” (2004).
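Values below derive from 48-hour exposures of cells grown in 96-well plates, with endpoints linearly interpolated between the two concentrations bracketing the appropriate inhibition level. Abbreviation: GI50, concentration required for 50% inhibition of growth.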 Calls of active or inactive are those of the source. Cut-off read from the data, not from the text of the source: active = GI50 up to about 1.1 µM and inactive = higher.

Tests used:
Assay in all cases: NCI anticancer screen, dose series, 48 h
[1] = tested on: M14
[2] = tested on: CCRF-CEM
[3] = tested on: NCI-H460
[4] = tested on: Malme-3M
[5] = tested on: EKVX
[6] = tested on: MDA-MB-435
[7] = tested on: TK-10
[8] = tested on: CAKI-1
[9] = tested on: KM12
[10] = tested on: HCT-116
[11] = tested on: SNB-75
[12] = tested on: NCI/ADR-RES
[13] = tested on: UACC-257
[14] = tested on: A549
[15] = tested on: HOP-92
[16] = tested on: HT-29
[17] = tested on: OVCAR-3
[18] = tested on: UO-31
[19] = tested on: OVCAR-8
[20] = tested on: NCI-H226

Row | SMILES | GI50 [1] | GI50 [2] | GI50 [3] | GI50 [4] | GI50 [5] | GI50 [6] | GI50 [7] | GI50 [8] | GI50 [9] | GI50 [10] | GI50 [11] | GI50 [12] | GI50 [13] | GI50 [14] | GI50 [15] | GI50 [16] | GI50 [17] | GI50 [18] | GI50 [19] | GI50 [20]
1 | CC(=O)OC1=CC2=CC[C@H]3[C@@H]4CCC(=O)[C@@]4(C)CC(=O)[C@]3(S)[C@@]2(C)CC1 | 36.9 µM (inactive) | 29 µM (inactive) | 25.2 µM (inactive) | 22.8 µM (inactive) | > 100 µM (inactive) | 30.7 µM (inactive) | 27.9 µM (inactive) | 35.2 µM (inactive) | 26.3 µM (inactive) | 21.7 µM (inactive) | 40.5 µM (inactive) | 75.7 µM (inactive) | 27.3 µM (inactive) | 49.4 µM (inactive) | 24.8 µM (inactive) | > 100 µM (inactive) | 22.7 µM (inactive) | 51.1 µM (inactive) | 31.3 µM (inactive) | –
2 | COCN(CCC1=CCCCC1)C(=O)OC | > 100 µM (inactive) | – | 29.9 µM (inactive) | > 100 µM (inactive) | > 100 µM (inactive) | > 100 µM (inactive) | > 100 µM (inactive) | > 100 µM (inactive) | > 100 µM (inactive) | 41.4 µM (inactive) | > 100 µM (inactive) | > 100 µM (inactive) | > 100 µM (inactive) | > 100 µM (inactive) | > 100 µM (inactive) | > 100 µM (inactive) | 76.7 µM (inactive) | 46.3 µM (inactive) | > 100 µM (inactive) | –
3 | O=C1/C(=C/c2ccc(Cl)cc2)N=C(c2ccccc2)N1C1Nc2cc3c(cc2S1)NC(N1C(=O)/C(=C/c2ccc(Cl)cc2)N=C1c1ccccc1)S3 (stereo not given) | > 100 µM (inactive) | 11.5 µM (inactive) | 30.4 µM (inactive) | – | > 100 µM (inactive) | 52.8 µM (inactive) | > 100 µM (inactive) | > 100 µM (inactive) | 54 µM (inactive) | 35.9 µM (inactive) | – | 63.8 µM (inactive) | > 100 µM (inactive) | – | 48.6 µM (inactive) | 52.6 µM (inactive) | 49.8 µM (inactive) | 80.2 µM (inactive) | 39.1 µM (inactive) | > 100 µM (inactive)
4 | CC(C)(C)NCc1cc(C(C)(C)C)cc(-c2ccc(Cl)cc2)c1O | 15 µM (inactive) | – | 12.5 µM (inactive) | 13.8 µM (inactive) | 12.7 µM (inactive) | 12.6 µM (inactive) | 12 µM (inactive) | 12.6 µM (inactive) | 13.2 µM (inactive) | 13.2 µM (inactive) | 10.7 µM (inactive) | 14.6 µM (inactive) | 28.2 µM (inactive) | 16 µM (inactive) | 14.3 µM (inactive) | 17.9 µM (inactive) | 15.6 µM (inactive) | 2.82 µM (inactive) | – | –
5 | C/C(O)=C/C(=O)c1[nH]c(C(=O)O)cc1C1CCN(Cc2ccccc2)C1=O (stereo not given) | 15.3 µM (inactive) | – | 15.8 µM (inactive) | 20 µM (inactive) | 21.3 µM (inactive) | 27.3 µM (inactive) | 27.9 µM (inactive) | 42.3 µM (inactive) | 29.9 µM (inactive) | 24.3 µM (inactive) | 20.8 µM (inactive) | 12 µM (inactive) | 22.4 µM (inactive) | 26.9 µM (inactive) | 20.8 µM (inactive) | 29.2 µM (inactive) | 21.7 µM (inactive) | 14.2 µM (inactive) | 19.1 µM (inactive) | –
6 | CC[C@@]1(O)C(=O)OCc2c1cc1n(c2=O)Cc2cc3cc(O)ccc3nc2-1 [HYDROXYCAMPTOTHECIN] | 0.0336 µM (active) | < 0.0075 µM (active) | – | 0.0498 µM (active) | – | 0.0453 µM (active) | 2.69 µM (inactive) | 0.00971 µM (active) | – | – | 0.014 µM (active) | 0.0232 µM (active) | – | 0.0506 µM (active) | 0.0277 µM (active) | – | – | – | 0.0142 µM (active) | –
